The record followed here is US20240376068A1, “SIGMA LIGAND COMPOUNDS AND USES THEREOF” (Minerva Neurosciences, Inc., priority 2020, published 2024).

The structures appear in SMILES notation.

Experiment [1] addresses dopamine D2S receptor (Homo sapiens (Human), UniProt P14416). Briefly: Dopamine D2S receptor binding assay (Eurofins Cerep item 1322). The conditions noted are these: [3H]7-OH-DPAT, read-out: % inhibition of control specific binding (1 μM). On the procedure: Assays for determining dopamine D2S receptor binding values were performed according to Eurofins Cerep protocol item 1322 and the results are represented in Table C below. The parameters used for the assay are described below. […] Common antipsychotics, in contrast, block dopamine receptors (Keefe, et al., J Clin Psychiatry. 2018; 79 (3): 17m11753).

The target in experiment [2] is T1, α1a (h) (Homo sapiens (Human), UniProt P35348). Briefly: α1A adrenergic antagonist effect assay. Format: cell-based. The settings on record: for inhibition at 1 µM: α1A(h) antagonist effect, read-out: % inhibition of control values (1 μM). The method, then: Assays for determining the antagonist effect on α1A (h) were performed according to the procedure described in Example 21, and the results are represented in Table E below. […] No antagonist effect is observed for the other compounds.
T1 sequence (P35348 whole entry): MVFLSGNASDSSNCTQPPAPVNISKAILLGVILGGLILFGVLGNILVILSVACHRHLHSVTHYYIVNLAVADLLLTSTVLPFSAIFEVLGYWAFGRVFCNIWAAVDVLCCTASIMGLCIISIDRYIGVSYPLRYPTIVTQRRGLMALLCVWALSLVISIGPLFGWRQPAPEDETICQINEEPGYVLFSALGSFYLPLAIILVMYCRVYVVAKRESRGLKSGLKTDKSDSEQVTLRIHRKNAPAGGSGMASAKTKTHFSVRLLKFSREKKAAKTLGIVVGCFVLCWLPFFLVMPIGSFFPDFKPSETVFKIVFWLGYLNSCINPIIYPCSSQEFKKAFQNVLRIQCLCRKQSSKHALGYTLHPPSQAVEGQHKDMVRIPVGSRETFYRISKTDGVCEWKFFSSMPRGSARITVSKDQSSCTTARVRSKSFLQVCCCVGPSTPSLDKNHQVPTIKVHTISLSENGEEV

Experiment [3] has as its target sigma 1 (h) (Homo sapiens (Human), UniProt Q99720). Briefly: Sigma-1 binding assay. The conditions noted are these: [3H](+)pentazocine, Jurkat cells; read-out: Sigma-1 Ki. On the procedure:
(§1) Assays for determining Sigma-1 and Sigma-2 binding values were performed according to Ganapathy, M. E. et al. (1999), J. Pharmacol. Exp. Ther., 289:251-260.

Experiment [4] has as its target hERG (Homo sapiens (Human), UniProt Q12809). The experiment is described as follows: hERG inhibition assay.
The target in experiment [5] is 5HT2A (Homo sapiens (Human), UniProt P28223). Briefly: 5HT2A agonist effect assay. It counts as cell-based. The conditions noted are these: for activation at 0.1 µM: 100 nM, read-out: % stimulation relative to control (100 nM); for activation at 1 µM: read-out: % stimulation relative to control (1 μM). The method, then: Assays for determining the agonist effect on 5HT2A were performed according to the procedure described in Example 21, and the results are represented in Table F below. The compounds in Table F have no agonist effect on 5HT2A at 1 μM and 100 nM.

The target of experiment [6] is Sigma 2 (h) (Homo sapiens (Human), UniProt Q5BJF2). The experiment is described as follows: Sigma-2 binding assay. The conditions noted are these: [3H]DTG (+1 μM (+)pentazocine), Jurkat cells; read-out: Sigma-2 Ki. On the procedure:
as §1

Experiment [7] has as its target T1, α1a (h). Briefly: α1A adrenergic agonist effect assay. It counts as cell-based. The conditions noted are these: α1A(h) agonist effect, 1 μM; read-out: % stimulation relative to control (1 μM). On the procedure: Assays for determining the agonist effect on α1A (h) were performed according to the procedure described in Example 21, and the results are represented in Table D below.

Chain of dopamine D2S receptor (P14416 other isoform, or with tags, fused parts or gaps): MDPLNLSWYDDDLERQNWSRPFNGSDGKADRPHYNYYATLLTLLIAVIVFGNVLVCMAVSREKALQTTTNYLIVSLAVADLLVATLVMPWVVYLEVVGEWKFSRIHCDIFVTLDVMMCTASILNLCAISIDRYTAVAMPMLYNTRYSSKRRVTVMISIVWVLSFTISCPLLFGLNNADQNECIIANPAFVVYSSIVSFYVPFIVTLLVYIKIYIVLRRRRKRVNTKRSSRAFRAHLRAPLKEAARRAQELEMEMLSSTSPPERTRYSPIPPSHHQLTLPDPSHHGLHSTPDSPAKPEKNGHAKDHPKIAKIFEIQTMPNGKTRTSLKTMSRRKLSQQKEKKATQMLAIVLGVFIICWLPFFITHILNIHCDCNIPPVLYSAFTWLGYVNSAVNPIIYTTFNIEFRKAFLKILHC
Chain of Sigma 2 (h) (Q5BJF2 whole entry): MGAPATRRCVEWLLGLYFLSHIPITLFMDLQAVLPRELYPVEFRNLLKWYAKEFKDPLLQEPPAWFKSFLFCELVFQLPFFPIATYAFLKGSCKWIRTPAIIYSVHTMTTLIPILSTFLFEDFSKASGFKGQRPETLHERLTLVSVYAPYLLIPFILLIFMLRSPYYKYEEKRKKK
Chain of hERG (Q12809 whole entry): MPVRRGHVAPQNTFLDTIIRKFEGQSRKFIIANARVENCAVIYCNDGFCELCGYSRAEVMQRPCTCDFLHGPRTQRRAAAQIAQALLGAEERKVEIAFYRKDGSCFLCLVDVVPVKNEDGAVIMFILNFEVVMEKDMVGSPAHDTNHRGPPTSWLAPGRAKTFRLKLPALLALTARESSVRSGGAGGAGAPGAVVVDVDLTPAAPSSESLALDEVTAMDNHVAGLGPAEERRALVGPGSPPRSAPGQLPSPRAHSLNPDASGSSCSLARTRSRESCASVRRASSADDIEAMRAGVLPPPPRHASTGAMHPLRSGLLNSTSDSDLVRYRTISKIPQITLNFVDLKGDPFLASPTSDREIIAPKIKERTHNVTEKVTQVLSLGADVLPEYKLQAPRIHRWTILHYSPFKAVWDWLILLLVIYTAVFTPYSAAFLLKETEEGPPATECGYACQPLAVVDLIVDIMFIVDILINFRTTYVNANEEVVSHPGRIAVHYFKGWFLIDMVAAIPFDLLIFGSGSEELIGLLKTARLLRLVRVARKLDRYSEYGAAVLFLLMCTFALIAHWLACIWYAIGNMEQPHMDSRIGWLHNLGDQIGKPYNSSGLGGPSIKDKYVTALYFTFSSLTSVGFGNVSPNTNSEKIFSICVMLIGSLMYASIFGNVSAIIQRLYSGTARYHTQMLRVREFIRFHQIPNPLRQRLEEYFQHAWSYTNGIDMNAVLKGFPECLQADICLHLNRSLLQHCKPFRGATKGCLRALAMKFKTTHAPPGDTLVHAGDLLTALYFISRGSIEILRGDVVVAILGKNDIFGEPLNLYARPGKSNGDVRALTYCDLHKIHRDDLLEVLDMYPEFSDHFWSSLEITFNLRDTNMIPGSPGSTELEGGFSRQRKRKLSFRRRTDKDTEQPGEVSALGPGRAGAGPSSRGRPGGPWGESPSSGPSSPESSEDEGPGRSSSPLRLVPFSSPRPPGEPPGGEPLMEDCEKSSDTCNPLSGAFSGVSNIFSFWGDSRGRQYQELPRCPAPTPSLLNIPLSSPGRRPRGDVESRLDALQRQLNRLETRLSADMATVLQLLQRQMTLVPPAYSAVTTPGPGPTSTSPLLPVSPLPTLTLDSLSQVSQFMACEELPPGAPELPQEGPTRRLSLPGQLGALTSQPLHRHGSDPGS
Chain of sigma 1 (h) (Q99720 whole entry): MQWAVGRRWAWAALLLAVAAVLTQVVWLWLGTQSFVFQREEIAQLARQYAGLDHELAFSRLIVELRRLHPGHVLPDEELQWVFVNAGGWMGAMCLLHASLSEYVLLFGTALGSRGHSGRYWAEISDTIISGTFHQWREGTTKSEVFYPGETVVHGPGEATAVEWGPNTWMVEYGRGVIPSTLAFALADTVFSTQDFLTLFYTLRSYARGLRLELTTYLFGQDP

As to `CC1(C)CN(C(=O)c2cc(F)cc(Cl)c2)Cc2cc(N3CCN(C4CCCC4)CC3)ccc21` [Compound 38, (3-chloro-5-fluorophenyl)(7-(4-cyclopentylpiperazin-1-yl)-4,4-dimethyl-3,4-dihydroisoquinolin-2(1H)-yl)methanone], the inhibition at 1 µM in experiment [1] stood at 1%; in experiment [2] it was 51%. The “antagonist effect on α1A (h) (in words)” value in experiment [2] was “small antagonist effect”. For the same molecule, the Ki in experiment [3] and in experiment [6] was 0.1 to 5 nM throughout. Besides, the half-inhibitory concentration (IC50) in experiment [4] came to 2040 nM. For the same molecule, the activation at 0.1 µM in experiment [5] stood at 0%. Also, the activation at 1 µM in experiment [5] was -1%; in experiment [7], 0%.

As to `CC1(C)CN(C(=O)OC2CCCCC2)Cc2cc(N3CCN(C4CCCC4)CC3)ccc21` [Compound 43, cyclohexyl 7-(4-cyclopentylpiperazin-1-yl)-4,4-dimethyl-3,4-dihydroisoquinoline-2(1H)-carboxylate], the inhibition at 1 µM in experiment [1] was found to be 11%; in experiment [2] it was 15%. Further, the inhibitory constant (Ki) in experiment [3] and in experiment [6] was 0.1 to 5 nM throughout. In experiment [4], this molecule came in with a concentration for half-maximal inhibition (IC50) of 2770 nM. Also, the activation at 0.1 µM in experiment [5] was -4%. Also, the activation at 1 µM in experiment [5] and in experiment [7] was 0% each time.

Turning to `CC(C)OC(=O)N1Cc2cc(N3CCN(C4CCCC4)CC3)ccc2C(C)(C)C1` [Compound 45, isopropyl 7-(4-cyclopentylpiperazin-1-yl)-4,4-dimethyl-3,4-dihydroisoquinoline-2(1H)-carboxylate], the inhibition at 1 µM is -5% in experiment [1] and 19% in experiment [2]. In addition, the inhibition constant Ki was 0.1 to 5 nM in experiment [3] and 5 to 50 nM in experiment [6]. Further, the IC50 in experiment [4] is over 3000 nM. The activation at 0.1 µM in experiment [5] is -4%. Besides, the activation at 1 µM in experiment [5] is -1%; in experiment [7] it was 0%.

As for `CC1(C)CCN(C(=O)C2CCCC2)Cc2cc(N3CCN(C4CCCC4)CC3)ccc21` [Compound 73, cyclopentyl(8-(4-cyclopentylpiperazin-1-yl)-5,5-dimethyl-1,3,4,5-tetrahydro-2H-benzo[c]azepin-2-yl)methanone], the inhibition at 1 µM is 6% in experiment [1] and 31% in experiment [2]. Moreover, the inhibition constant Ki in experiment [3] was 0.1 to 5 nM; in experiment [6] it was 5 to 50 nM. The molecule also yielded an IC50 in experiment [4] of 2600 nM. Moreover, in experiment [5], the activation at 0.1 µM was determined as 2%. Further, the activation at 1 µM in experiment [5] and in experiment [7] was 0% in each case.

`CC(C)OC(=O)N1CCC(C)(C)c2ccc(N3CCN(C4CCCC4)CC3)cc2C1` [Compound 79, isopropyl 8-(4-cyclopentylpiperazin-1-yl)-5,5-dimethyl-1,3,4,5-tetrahydro-2H-benzo[c]azepine-2-carboxylate]: the inhibition at 1 µM in experiment [1] came out at 19%; in experiment [2], 13%. Besides, the Ki in experiment [3] is 0.1 to 5 nM; in experiment [6], 5 to 50 nM. In experiment [4], the IC50 was over 3000 nM. For the same molecule, the activation at 0.1 µM in experiment [5] was found to be 1%. The activation at 1 µM in experiment [5] and in experiment [7] was 0% throughout.

Take `CC1(C)CCN(S(=O)(=O)c2cccc(Cl)c2)Cc2cc(N3CCC(N4CCOCC4)CC3)ccc21` [Compound 80, 4-(1-(2-((3-chlorophenyl)sulfonyl)-5,5-dimethyl-2,3,4,5-tetrahydro-1H-benzo[c]azepin-8-yl)piperidin-4-yl)morpholine]: the inhibition at 1 µM stood at 4% in experiment [1] and 15% in experiment [2]. In addition, the results for the Ki in experiment [3] and in experiment [6] were 0.1 to 5 nM and 50 to 100 nM, respectively. Besides, in experiment [4], the 50% inhibitory concentration (IC50) is over 3000 nM. For the same molecule, the activation at 0.1 µM in experiment [5] was 0%. The activation at 1 µM in experiment [5] came to 1%; in experiment [7], 0%.
